# Literature values as cited in PubChem BioAssay AID1259409 (Chemical Carcinogenesis Research Information System (CCRIS), 2018).
# Test system: rodent chemically induced tumor inhibition, incidence and multiplicity
# Assay: CCRIS tumor inhibitor studies
# Conditions: Promoter: NONE USED
structure (smiles),measurement,setting,value
CC(C)(C)c1cc(O)ccc1O,"tumour outcome (control, treated, inhibition, significance)","Carcinogen: 7,12-DIMETHYLBENZ[A]ANTHRACENE, 57-97-6, Dose [Inhibitor]: 0.8% IN POWDERED DIET BEGINNING 1 WK POST CARCINOGEN DOSE FOR 51 WK (STUDY DURATION: 52 WK), Route [Inhibitor]: ORAL, Species: RAT, Strain/Sex: SPRAGUE-DAWLEY/FEMALE, Target Tissue: Type of Lesion: EAR DUCT: BENIGN TUMOR, Dose [Carcinogen]: 2.5 MG/100 G BW IN 0.5 ML SESAME OIL ONCE","7/19 (37%), 5/16 (31%), 15%, not calculated"
same,"tumour outcome (control, treated, inhibition, significance)","Carcinogen: 7,12-DIMETHYLBENZ[A]ANTHRACENE, 57-97-6, Dose [Inhibitor]: 0.8% IN POWDERED DIET BEGINNING 1 WK POST CARCINOGEN DOSE FOR 51 WK (STUDY DURATION: 52 WK), Route [Inhibitor]: ORAL, Species: RAT, Strain/Sex: SPRAGUE-DAWLEY/FEMALE, Target Tissue: Type of Lesion: MAMMARY GLAND: CARCINOMA, Dose [Carcinogen]: 2.5 MG/100 G BW IN 0.5 ML SESAME OIL ONCE","6/19 (32%), 5/16 (31%), 0.9%, not calculated"
same,"tumour outcome (control, treated, inhibition, significance)","Carcinogen: 7,12-DIMETHYLBENZ[A]ANTHRACENE, 57-97-6, Dose [Inhibitor]: 0.8% IN POWDERED DIET BEGINNING 1 WK POST CARCINOGEN DOSE FOR 51 WK (STUDY DURATION: 52 WK), Route [Inhibitor]: ORAL, Species: RAT, Strain/Sex: SPRAGUE-DAWLEY/FEMALE, Target Tissue: Type of Lesion: MAMMARY GLAND: FIBROADENOMA, Dose [Carcinogen]: 2.5 MG/100 G BW IN 0.5 ML SESAME OIL ONCE","15/19 (79%), 4/16 (24%), 70%, p<0.001"
same,"tumour outcome (control, treated, inhibition, significance)","Carcinogen: BENZO[A]PYRENE, 50-32-8, Dose [Inhibitor]: 0.03 MMOL/G OF DIET DAILY STARTING 8 D BEFORE AND CONTINUING THROUGH 3 D AFTER CARCINOGEN TREATMENT FOLLOWED BY OBSERVAT, Route [Inhibitor]: ORAL, Species: MOUSE, Strain/Sex: ICR/FEMALE, Target Tissue: Type of Lesion: FORESTOMACH: NEOPLASM, Dose [Carcinogen]: 1 MG IN 0.2 ML CORN OIL 2/WK FOR 4 WK","94%, 85%, 10%, not significant"
same,"tumour outcome (control, treated, inhibition, significance)","Carcinogen: N-METHYL-N'-NITRO-N-NITROSOGUANIDINE, 70-25-7, N-ETHYL-N-HYDROXYETHYLNITROSAMINE, 13147-25-6, N-METHYLBENZYLNITROSAM, Carcinogen: N-METHYL-N'-NITRO-N-NITROSOGUANIDINE, 70-25-7, N-ETHYL-N-HYDROXYETHYLNITROSAMINE, 13147-25-6, N-METHYLBENZYLNITROSAM, Dose [Inhibitor]: 0, 1% IN DIET FOR 36 WK (STUDY DURATION: 36 WK), Route [Inhibitor]: ORAL, Species: RAT, Strain/Sex: F344/MALE, Target Tissue: Type of Lesion: COLON: CARCINOMA, Dose [Carcinogen]: 100 MG/KG BW MNNG ONCE, 750 MG/KG BW EHEN ONCE, 0.5 MG/KG BW MBN TWICE, 40 MG/KG BW DMH 4 TIMES, 0.05% DBN IN DRINKING W","10/18 (56%), 4/18 (22%), 61%, not calculated"
same,"tumour outcome (control, treated, inhibition, significance)","Carcinogen: N-METHYL-N'-NITRO-N-NITROSOGUANIDINE, 70-25-7, N-ETHYL-N-HYDROXYETHYLNITROSAMINE, 13147-25-6, N-METHYLBENZYLNITROSAM, Carcinogen: N-METHYL-N'-NITRO-N-NITROSOGUANIDINE, 70-25-7, N-ETHYL-N-HYDROXYETHYLNITROSAMINE, 13147-25-6, N-METHYLBENZYLNITROSAM, Dose [Inhibitor]: 0, 1% IN DIET FOR 36 WK (STUDY DURATION: 36 WK), Route [Inhibitor]: ORAL, Species: RAT, Strain/Sex: F344/MALE, Target Tissue: Type of Lesion: ESOPHAGUS: PAPILLOMA, Dose [Carcinogen]: 100 MG/KG BW MNNG ONCE, 750 MG/KG BW EHEN ONCE, 0.5 MG/KG BW MBN TWICE, 40 MG/KG BW DMH 4 TIMES, 0.05% DBN IN DRINKING W","3/18 (17%), 15/18 (83%), -388%, p<0.001"
same,"tumour outcome (control, treated, inhibition, significance)","Carcinogen: N-METHYL-N'-NITRO-N-NITROSOGUANIDINE, 70-25-7, N-ETHYL-N-HYDROXYETHYLNITROSAMINE, 13147-25-6, N-METHYLBENZYLNITROSAM, Carcinogen: N-METHYL-N'-NITRO-N-NITROSOGUANIDINE, 70-25-7, N-ETHYL-N-HYDROXYETHYLNITROSAMINE, 13147-25-6, N-METHYLBENZYLNITROSAM, Dose [Inhibitor]: 0, 1% IN DIET FOR 36 WK (STUDY DURATION: 36 WK), Route [Inhibitor]: ORAL, Species: RAT, Strain/Sex: F344/MALE, Target Tissue: Type of Lesion: FORESTOMACH: PAPILLOMA, Dose [Carcinogen]: 100 MG/KG BW MNNG ONCE, 750 MG/KG BW EHEN ONCE, 0.5 MG/KG BW MBN TWICE, 40 MG/KG BW DMH 4 TIMES, 0.05% DBN IN DRINKING W","6/18 (33%), 15/18 (83%), -151%, p<0.01"
same,"tumour outcome (control, treated, inhibition, significance)","Carcinogen: N-METHYL-N'-NITRO-N-NITROSOGUANIDINE, 70-25-7, N-ETHYL-N-HYDROXYETHYLNITROSAMINE, 13147-25-6, N-METHYLBENZYLNITROSAM, Carcinogen: N-METHYL-N'-NITRO-N-NITROSOGUANIDINE, 70-25-7, N-ETHYL-N-HYDROXYETHYLNITROSAMINE, 13147-25-6, N-METHYLBENZYLNITROSAM, Dose [Inhibitor]: 0, 1% IN DIET FOR 36 WK (STUDY DURATION: 36 WK), Route [Inhibitor]: ORAL, Species: RAT, Strain/Sex: F344/MALE, Target Tissue: Type of Lesion: KIDNEY: RENAL CELL TUMOR, Dose [Carcinogen]: 100 MG/KG BW MNNG ONCE, 750 MG/KG BW EHEN ONCE, 0.5 MG/KG BW MBN TWICE, 40 MG/KG BW DMH 4 TIMES, 0.05% DBN IN DRINKING W","8/18 (44%), 5/18 (28%), 36%, not calculated"
Nc1ncn([C@H]2C[C@H](O)[C@@H](CO)O2)c(=O)n1,"tumour outcome (control, treated, inhibition, significance)","Carcinogen: 4-(METHYLNITROSAMINO)-1-(3-PYRIDIYL)-1-BUTANONE, 64091-91-4, Dose [Inhibitor]: 0, 1 MG/KG 3/WK FOR 12 WK THEN 0, 0.5 MG/KG FOR 12 WK BEGINNING 1 WK PRIOR TO CARCINOGEN TREATMENT (STUDY DURATION: 24 W, Dose [Inhibitor]: 0, 1 MG/KG 3/WK FOR 12 WK THEN 0, 0.5 MG/KG FOR 12 WK BEGINNING 1 WK PRIOR TO CARCINOGEN TREATMENT (STUDY DURATION: 24 W, Route [Inhibitor]: INTRAPERITONEAL, Species: MOUSE, Strain/Sex: C3AF1/MALE, Target Tissue: Type of Lesion: LUNG: TUMOR, Dose [Carcinogen]: 3.9 MG/MOUSE (TOTAL DOSE) ADMINISTERED IN TWO WEEKLY DOSES OF 1.9 TO 2 MG","100%, 77%, 23%, not significant"
CCCCc1cccs1,"tumour outcome (control, treated, inhibition, significance)","Carcinogen: BENZO[A]PYRENE, 50-32-8, Dose [Inhibitor]: 0, 45 UMOL IN 0.2 ML COTTONSEED OIL 3/WK FOR 4 WK BEGINNING 1 DAY PRIOR TO FIRST CARCINOGEN DOSE AND TERMINATING 1 DAY A, Route [Inhibitor]: GAVAGE, Species: MOUSE, Strain/Sex: STRAIN-A/FEMALE, Target Tissue: Type of Lesion: FORESTOMACH: TUMOR, Dose [Carcinogen]: 1 MG 2/WK FOR 4 WK","14/17 (82%), 9/18 (50%), 39%, p<0.05"
same,"tumour outcome (control, treated, inhibition, significance)","Carcinogen: BENZO[A]PYRENE, 50-32-8, Dose [Inhibitor]: 0, 45 UMOL IN 0.2 ML COTTONSEED OIL 3/WK FOR 4 WK BEGINNING 1 DAY PRIOR TO FIRST CARCINOGEN DOSE AND TERMINATING 1 DAY A, Route [Inhibitor]: GAVAGE, Species: MOUSE, Strain/Sex: STRAIN-A/FEMALE, Target Tissue: Type of Lesion: LUNG: TUMOR, Dose [Carcinogen]: 1 MG 2/WK FOR 4 WK","17/17 (100%), 18/18 (100%), 0%, not significant"
same,"tumour outcome (control, treated, inhibition, significance)","Carcinogen: BENZO[A]PYRENE, 50-32-8, Dose [Inhibitor]: 0, 90 UMOL IN 0.2 ML COTTONSEED OIL 3/WK FOR 4 WK BEGINNING 1 DAY PRIOR TO FIRST CARCINOGEN DOSE AND TERMINATING 1 DAY A, Route [Inhibitor]: GAVAGE, Species: MOUSE, Strain/Sex: STRAIN-A/FEMALE, Target Tissue: Type of Lesion: FORESTOMACH: TUMOR, Dose [Carcinogen]: 1 MG 2/WK FOR 4 WK","14/17 (82%), 9/13 (69%), 16%, not significant"
same,"tumour outcome (control, treated, inhibition, significance)","Carcinogen: BENZO[A]PYRENE, 50-32-8, Dose [Inhibitor]: 0, 90 UMOL IN 0.2 ML COTTONSEED OIL 3/WK FOR 4 WK BEGINNING 1 DAY PRIOR TO FIRST CARCINOGEN DOSE AND TERMINATING 1 DAY A, Route [Inhibitor]: GAVAGE, Species: MOUSE, Strain/Sex: STRAIN-A/FEMALE, Target Tissue: Type of Lesion: LUNG: TUMOR, Dose [Carcinogen]: 1 MG 2/WK FOR 4 WK","17/17 (100%), 13/13 (100%), 0%, not significant"
